Earlier results as cited in patent US20130171237A1, “ARIPIPRAZOLE COMPOSITIONS AND METHODS FOR ITS TRANSDERMAL DELIVERY” (priority 2010, published 2013).

O=C1CCc2ccc(OCCCCN3CCN(c4cccc(Cl)c4Cl)CC3)cc2N1 [ARPZ, Aripiprazole]
solubility in water: practically insoluble in water
